Biological target: Transcription factor Jun (Homo sapiens, UniProt P05412)
Assay: Inhibition of c-Jun

Transcription factor Jun, sequence (P05412 whole entry): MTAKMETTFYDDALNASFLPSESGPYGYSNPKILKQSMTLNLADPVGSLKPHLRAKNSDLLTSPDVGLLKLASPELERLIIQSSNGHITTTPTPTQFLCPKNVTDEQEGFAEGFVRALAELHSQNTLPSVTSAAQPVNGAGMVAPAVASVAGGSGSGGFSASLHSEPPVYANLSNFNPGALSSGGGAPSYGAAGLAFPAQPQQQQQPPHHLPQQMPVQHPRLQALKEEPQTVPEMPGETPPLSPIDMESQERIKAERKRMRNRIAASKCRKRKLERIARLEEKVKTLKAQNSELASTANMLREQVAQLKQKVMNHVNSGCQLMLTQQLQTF

Compound	IC50
Cc1ccc(-c2cccc3cnc(NC4CCC(O)CC4)nc23)cn1 (stereo unspecified) [4-(8-(6-methylpyridin-3-yl)quinazolin-2-ylamino)cyclohexanol]	930 nM
Cn1cc(-c2ccc3cnc(Nc4ccc(-n5cnc(N6CCOCC6)n5)cc4)nc3c2-c2cnn(C)c2)cn1 [7,8-bis(1-methyl-1H-pyrazol-4-yl)-N-(4-(3-morpholino-1H-1,2,4-triazol-1-yl)phenyl)quinazolin-2-amine]	40 nM
Cn1cc(-c2ccc3cnc(Nc4ccc(-n5cnc(-c6ccccn6)n5)cc4)nc3c2)cn1 [7-(1-methyl-1H-pyrazol-4-yl)-N-(4-(3-(pyridin-2-yl)-1H-1,2,4-triazol-1-yl)phenyl)quinazolin-2-amine]	290 nM
Cn1cc(-c2ccc3cnc(Nc4ccc(-n5cnc(N6CCOCC6)n5)cc4)nc3c2-c2ccccc2)cn1 [7-(1-methyl-1H-pyrazol-4-yl)-N-(4-(3-morpholino-1H-1,2,4-triazol-1-yl)phenyl)-8-phenylquinazolin-2-amine]	40 nM
Cn1cc(-c2ccc3cnc(Nc4ccc(-n5cnc(N6CCOCC6)n5)cc4)nc3c2)cn1 [7-(1-methyl-1H-pyrazol-4-yl)-N-(4-(3-morpholino-1H-1,2,4-triazol-1-yl)phenyl)quinazolin-2-amine]	310 nM
Cn1cc(-c2cccc3cnc(Nc4ccc(-n5cnc(N6CCOCC6)n5)cc4)nc23)cn1 [8-(1-methyl-1H-pyrazol-4-yl)-N-(4-(3-morpholino-1H-1,2,4-triazol-1-yl)phenyl)quinazolin-2-amine]	330 nM
COc1ccc(-c2cccc3cnc(Nc4ccc(-n5cnc(-c6ccccn6)n5)cc4)nc23)cc1F [8-(3-fluoro-4-methoxyphenyl)-N-(4-(3-(pyridin-2-yl)-1H-1,2,4-triazol-1-yl)phenyl)quinazolin-2-amine]	5100 nM
COc1ccc(-c2cccc3cnc(Nc4ccc(-n5cnc(C)n5)cc4)nc23)cc1F [8-(3-fluoro-4-methoxyphenyl)-N-(4-(3-methyl-1H-1,2,4-triazol-1-yl)phenyl)quinazolin-2-amine]	500 nM
COc1ccc(-c2cccc3cnc(Nc4ccc(-n5cnc(N6CCOCC6)n5)cc4)nc23)cc1F [8-(3-fluoro-4-methoxyphenyl)-N-(4-(3-morpholino-1H-1,2,4-triazol-1-yl)phenyl)quinazolin-2-amine]	250 nM
CC(C)n1cc(-c2ccc3cnc(Nc4ccc(-n5cnc(N6CCOCC6)n5)cc4)nc3c2Cl)cn1 [8-chloro-7-(1-isopropyl-1H-pyrazol-4-yl)-N-(4-(3-morpholino-1H-1,2,4-triazol-1-yl)phenyl)quinazolin-2-amine]	620 nM
Cn1cc(-c2ccc3cnc(Nc4ccc(-n5cnc(N6CCOCC6)n5)cc4)nc3c2Cl)cn1 [8-chloro-7-(1-methyl-1H-pyrazol-4-yl)-N-(4-(3-morpholino-1H-1,2,4-triazol-1-yl)phenyl)quinazolin-2-amine]	100 nM
Cn1cc(-c2ccc3cnc(Nc4ccc(-n5cnc(N6CCOCC6)n5)cc4)nc3c2C2CC2)cn1 [8-cyclopropyl-7-(1-methyl-1H-pyrazol-4-yl)-N-(4-(3-morpholino-1H-1,2,4-triazol-1-yl)phenyl)quinazolin-2-amine]	130 nM
COc1c(-c2cnn(C)c2)ccc2cnc(Nc3ccc(-n4cnc(N5CCOCC5)n4)cc3)nc12 [8-methoxy-7-(1-methyl-1H-pyrazol-4-yl)-N-(4-(3-morpholino-1H-1,2,4-triazol-1-yl)phenyl)quinazolin-2-amine]	50 nM
Cc1c(-c2cnn(C)c2)ccc2cnc(Nc3ccc(-n4cnc(N5CCOCC5)n4)cc3)nc12 [8-methyl-7-(1-methyl-1H-pyrazol-4-yl)-N-(4-(3-morpholino-1H-1,2,4-triazol-1-yl)phenyl)quinazolin-2-amine]	160 nM
Cc1ccc(-c2cccc3cnc(N[C@H]4CC[C@@H](C(=O)N5CCCC5)CC4)nc23)cn1 [((cis)-4-(8-(6-methylpyridin-3-yl)quinazolin-2-ylamino)cyclohexyl)(pyrrolidin-1-yl)methanone]	3000 nM
Cc1ccc(-c2ncn(-c3ccc(Nc4ncc5ccc(-c6cn[nH]c6)cc5n4)cc3)n2)cn1 [N-(4-(3-(6-methylpyridin-3-yl)-1H-1,2,4-triazol-1-yl)phenyl)-7-(1H-pyrazol-4-yl)quinazolin-2-amine]	40 nM
Cc1ncn(-c2ccc(Nc3ncc4cccc(-c5nccs5)c4n3)cc2)n1 [N-(4-(3-methyl-1H-1,2,4-triazol-1-yl)phenyl)-8-(thiazol-2-yl)quinazolin-2-amine]	200 nM
c1cc(-n2cnc(N3CCOCC3)n2)ccc1Nc1ncc2ccc(-c3cn[nH]c3)cc2n1 [N-(4-(3-morpholino-1H-1,2,4-triazol-1-yl)phenyl)-7-(1H-pyrazol-4-yl)quinazolin-2-amine]	120 nM
c1cc(-c2nccs2)c2nc(Nc3ccc(-n4cnc(N5CCOCC5)n4)cc3)ncc2c1 [N-(4-(3-morpholino-1H-1,2,4-triazol-1-yl)phenyl)-8-(thiazol-2-yl)quinazolin-2-amine]	3000 nM
c1ccc(-c2cccc3cnc(Nc4ccc(-n5cnc(N6CCOCC6)n5)cc4)nc23)cc1 [N-(4-(3-morpholino-1H-1,2,4-triazol-1-yl)phenyl)-8-phenylquinazolin-2-amine]	1400 nM
Cc1ccc(-c2cccc3cnc(Nc4ccc5c(c4)OCO5)nc23)cn1 [N-(benzo[d][1,3]dioxol-5-yl)-8-(6-methylpyridin-3-yl)quinazolin-2-amine]	630 nM

— BindingDB's records for doi:10.1016/j.bmcl.2011.01.079 (The Scripps Research Institute, 2011)
